From patent publication US20230134760A1, “CAR AND NRF2 DUAL ACTIVATOR AGENTS FOR CYCLOPHOSPHAMIDE-BASED AND DOXORUBICIN-BASED TREATMENTS OF CANCER” (priority 2020, published 2023)

Key:
hCAR or Nrf2 = assay: all curve and EC50 curve of selected compounds (FIG. 22-35); format: cell-based; conditions: for Emax: figure legend values
Experimental: Cell lysates were assayed for luciferase activity and normalized against the activity of the Renilla luciferase using a Dual-Luciferase Kit (Promega). […] Compound 2, DL7076, was selected for further evaluation based on its effects in activating hCAR and Nrf2 using the HepG2 cell reporter assay (FIGS. 37a-37c).

BT549 cells = assay: HPH/BT549 co-culture, CPA cytotoxicity (CCK8); format: cell-based; conditions: HPH/BT549 coculture, CPA 250, 500, 1000 μM, 48 hours
Experimental: HPH were cultured in collagen-coated 24 well plates and pre-treated with vehicle control (0.1% DMSO), CITCO (1 μM) or DL7076 (5 μM or 10 μM) for 24 h. […] Following the 24 h pre-treatment, coverslips were combined in hepatocyte seeded wells and exposed to designated concentrations of cyclophosphamide in the presence or absence of DL7076 for various time intervals, as indicated.
H9c2 cells were seeded 0.8×10^5 in 24-well plates. Following cell attachment, a 2 h pre-treatment with vehicle control (0.1% DMSO), SFN (2.5 μM) or DL7076 (1 μM, 5 μM, or 10 μM) was done followed by doxorubicin (2.5 μM) exposure for 22 h. Co-culture cells were assembled and treated with cyclophosphamide and doxorubicin as indicated. A Cell Counting Kit-8 (Enzo) assay was carried out. Cell viability was described as a percent of vehicle control (0.1% DMSO). Cardiomyocyte, human iPSC-derived cardiomyocytes, and BT549 viability was determined with a 1 hr incubation of 6% CCK8 in WEM.

cleaved caspase-3 = assay: Cleaved caspase-3 Western blot in H9c2 cardiomyocytes; format: cell-based, rat; conditions: H9c2, DOX 2.5 μM
Excerpt: Protein was harvested using cell lysis buffer (Cell Signaling Technology, Danvers, Mass.) with a complete protease inhibitor cocktail (Roche, Mannheim, Germany) prior to homogenizing via sonification. Homogenized protein from treated HPH, H9c2, BT549, and MDA-MB-231 cells were resolved on NuPage Novex Bis-Tris 4-12% gels (Life Technologies) or NuPage Novex Bis-Tris 12% gel and transferred through electrophoresis onto immobilon-P polyvinylidene difluoride (PVDF) membranes. Membranes were blocked with 5% BSA or 5% milk in Tris-Buffer saline with Tween 20 (TBST). Further, membranes were incubated with specific antibodies against human CYP2B6 (1:1000, Abcam), CYP3A4 (1:1000, Millipore Sigma), HO-1 (1:1000, Abcam), cleaved caspase-3 (1:1000 Cell Signaling Technologies), Nrf2 (1:1000, Abcam), TATA-Binding Protein (1:500, Santa Cruz) β-actin (1:3000, Millipore Sigma) at 4° C. overnight. Following overnight incubation, horseradish peroxidase goat anti-mouse or anti-rabbit IgG antibodies were used for secondary incubation. Membranes were developed using SuperSignal West Pico Chemiluminescent Substrate (Thermo Scientific) or Radiance Q (Azure). Two TNBC cell lines, cardiomyocytes, and HPH protein samples were isolated and resolved on a 4-12% or 12% SDS PAGE gel followed by electrophoretic transfer to a PVDF membrane. Membranes were probed 1:1000 for CYP2B6, CYP3A4, Nrf2, cleaved caspase 3, and HO-1 using β-actin (1:3000) or TBP (1:500) as a loading control.

H9c2 cells = assay: Oxidative stress imaging (DFDA) in H9c2 cells; format: cell-based, rat; conditions: H9c2, DOX 1, 2.5, 5 μM, 6 hours
Experimental: H9c2 rat cardiomyocytes seeded at 0.8×10^5 in 24-well plates. […] Cells were washed 3× with PBS. Subsequently, 0.5 mL of WEM containing 20 μM 2'-7'-dichlorofluorescein diacetate (DFDA) was added to each well. The cells were incubated at 37° C. and 5% CO2 for 30 min. The oxidation of DFDA to the fluorescent dichlorofluorescein was viewed using fluorescence microscopy (Nikon Eclipse Ti) with a FITC filter at […] and quantified using Brightspot detection for fluorescent detection of triplicate images and normalized to the vehicle control (0.1% DMSO). Cells on coverslips from co-culture experiments were fixed using 4% paraformaldehyde and permealized using Triton-X 100. A primary antibody for mouse anti-phospho-H2AX ([…]) was incubated overnight. Goat anti-mouse IgG Fluor Alexa 488 (1:200) was incubated for 2 hrs. Phosphorylation was calculated through fluorescence intensity all normalized to the vehicle control.

In the case of O=C(N[C@@H]1CCCC[C@H]1N=C=S)c1c(-c2ccc3ccccc3c2)nc2occn12 (stereo in doubt) [DL7096, N-((1R,2R)-2-Isothiocyanatocyclohexyl)-6-(naphthalen-2-yl)imidazo[2,1-b]oxazole-5-carboxamide], the EC50 (hCAR or Nrf2) is reported as 330 nM and the Emax (hCAR or Nrf2) is reported as 1.1.

For O=P1(N(CCCl)CCCl)NCCCO1 (stereo not shown) [CPA, cyclophosphamide], the “BT549 viability, CPA alone” value (BT549 cells) was “decreased the viability of the BT549 cells in a concentration-dependent manner”.

For O=C(NCCN=C=S)c1c(-c2ccc3ccccc3c2)nc2occn12 [DL7009, N-(2-Isothiocyanatoethyl)-6-(naphthalen-2-yl)imidazo[2,1-b]oxazole-5-carboxamide], the EC50 (hCAR or Nrf2) was 930 nM and the Emax (hCAR or Nrf2) was 1.4.

In the case of O=C(NCC(N=C=S)c1ccccc1)c1c(-c2ccc3ccccc3c2)nc2occn12 (stereo not drawn) [DL7055-2, N-(2-Isothiocyanato-2-phenylethyl)-6-(naphthalen-2-yl)imidazo[2,1-b]oxazole-5-carboxamide], the EC50 (hCAR or Nrf2) is reported as 19000 ± 80 nM and the Emax (hCAR or Nrf2) is reported as 6.2.

Work on O=C(c1c(-c2ccc3ccccc3c2)nc2occn12)N1CCC(N=C=S)CC1 [DL7077, (4-Isothiocyanatopiperidin-1-yl)(6-(naphthalen-2-yl)imidazo[2,1-b]oxazol-5-yl)methanone] yielded an EC50 (hCAR or Nrf2) of 4800 ± 210 nM and an Emax (hCAR or Nrf2) of 1.8.

For O=C(NCCCN=C=S)c1c(-c2ccc3ccccc3c2)nc2occn12 [DL7087, N-(3-Isothiocyanatopropyl)-6-(naphthalen-2-yl)imidazo[2,1-b]oxazole-5-carboxamide], the EC50 (hCAR or Nrf2) was 1100 ± 430 nM and the Emax (hCAR or Nrf2) was 1.27.

CC(CN=C=S)NC(=O)c1c(-c2ccc3ccccc3c2)nc2occn12 (stereo not drawn) [DL7091, N-(1-Isothiocyanatopropan-2-yl)-6-(naphthalen-2-yl)imidazo[2,1-b]oxazole-5-carboxamide] showed an EC50 (hCAR or Nrf2) of 4100 nM and an Emax (hCAR or Nrf2) of 3.6.

Work on CC(CNC(=O)c1c(-c2ccc3ccccc3c2)nc2occn12)N=C=S (stereo not drawn) [DL7092, N-(2-Isothiocyanatopropyl)-6-(naphthalen-2-yl)imidazo[2,1-b]oxazole-5-carboxamide] yielded an EC50 (hCAR or Nrf2) of 32000 nM and an Emax (hCAR or Nrf2) of 6.0.

O=C(NCCCCN=C=S)c1c(-c2ccc3ccccc3c2)nc2occn12 [DL7101, N-(4-Isothiocyanatobutyl)-6-(naphthalen-2-yl)imidazo[2,1-b]oxazole-5-carboxamide] was tested, and the EC50 (hCAR or Nrf2) was 420 nM and the Emax (hCAR or Nrf2) was 1.6.

With COc1cccc2c1C(=O)c1c(O)c3c(c(O)c1C2=O)C[C@@](O)(C(=O)CO)C[C@@H]3O[C@H]1C[C@H](N)[C@H](O)[C@H](C)O1 [DOX, doxorubicin] the “cleaved caspase-3 expression, DOX alone” value (cleaved caspase-3) was “abundance in the expression of cleaved caspase-3” and the “ROS (fluorescence intensity), DOX alone” value (H9c2 cells) was “concentration dependently increases ROS”.
